This is an account of results in publication PMC12548092, “Exploring Helical Fraying Linked to Dynamics and Catalysis in Adenylate Kinase” (Biochemistry, 2025).

For the experiment, the target named is T1, hAK1 (Homo sapiens, UniProt P00568).
T1 construct: gene AK1; pET24d, E. coli BL21 (DE3), Blue Sepharose and size exclusion; 15N/13C-labelled
T1 sequence (P00568 1-194): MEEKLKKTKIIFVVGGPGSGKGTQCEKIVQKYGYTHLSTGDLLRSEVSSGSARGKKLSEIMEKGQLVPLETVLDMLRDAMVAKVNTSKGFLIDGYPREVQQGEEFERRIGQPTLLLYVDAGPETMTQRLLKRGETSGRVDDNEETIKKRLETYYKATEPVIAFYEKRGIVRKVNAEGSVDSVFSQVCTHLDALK
Put plainly: NMR backbone assignment and […] relaxation order parameters. The class given is binding. To be noted: 30 mM MES, 50 mM NaCl, pH 5.5 (assignment), 298 K.

With `Nc1ncnc2c1ncn2[C@@H]1O[C@H](COP(=O)(O)OP(=O)(O)OP(=O)(O)OP(=O)(O)OP(=O)(O)OC[C@H]2O[C@@H](n3cnc4c(N)ncnc43)[C@H](O)[C@@H]2O)[C@@H](O)[C@H]1O` [Ap5A], the “NMR backbone assignment and 15N relaxation order parameters” value is reported as “one helical turn in the α-helix at the N-terminus of the catalytic loop”.
